Test results taken from the supplement of paper PMC10307832.

How the values were obtained:
Test in all cases: relative viability (nuclei count vs DMSO), 5 days (fraction); higher = more cells survive
[1] = tested on: HARA
Summary of the method: (§1)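 Lung cancer cell lines were pin-tool dosed in 1536-well plates on the day after seeding, with either a lone drug or a fixed anchor-drug dose plus five library-drug doses (not always all listed) in √10 steps. Nuclei were counted on 4× images after 5 days. Relative viability is the ratio of treated-well to vehicle-well nuclei counts, with each value a median of duplicate plates.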

[2] = tested on: 201T
Summary of the method: as §1

[3] = tested on: BEN
Summary of the method: as §1

[4] = tested on: NCI-H1666
Summary of the method: as §1

[5] = tested on: LOU-NH91
Summary of the method: as §1

[6] = tested on: NCI-H1993
Summary of the method: as §1

[7] = tested on: NCI-H596
Summary of the method: as §1

[8] = tested on: NCI-H727
Summary of the method: as §1

[9] = tested on: NCI-H2126
Summary of the method: as §1

[10] = tested on: NCI-H2023
Summary of the method: as §1

[11] = tested on: NCI-H2087
Summary of the method: as §1

[12] = tested on: NCI-H441
Summary of the method: as §1

[13] = tested on: NCI-H2009
Summary of the method: as §1

[14] = tested on: NCI-H23
Summary of the method: as §1

[15] = tested on: NCI-H1395
Summary of the method: as §1

[16] = tested on: HCC-44
Summary of the method: as §1

[17] = tested on: NCI-H838
Summary of the method: as §1

[18] = tested on: NCI-H3122
Summary of the method: as §1

[19] = tested on: LCLC-103H
Summary of the method: as §1

[20] = tested on: NCI-H2347
Summary of the method: as §1

[21] = tested on: NCI-H647
Summary of the method: as §1

[22] = tested on: NCI-H650
Summary of the method: as §1

[23] = tested on: EMC-BAC-2
Summary of the method: as §1

Oc1nc(-c2ccc(C(F)(F)F)cc2)nc2c1CSCC2 [XAV939] + CS(=O)(=O)N1CCN(Cc2cc3nc(-c4cccc5[nH]ncc45)nc(N4CCOCC4)c3s2)CC1 [Pictilisib] (partner 1 µM)
relative viability ([1]; first compound 0.08 µM): 0.477 | relative viability ([1]; first compound 0.253 µM): 0.386 | relative viability ([1]; first compound 0.8 µM): 0.345 | relative viability ([1]; first compound 2.53 µM): 0.394 | relative viability ([2]; first compound 0.08 µM): 0.673 | relative viability ([2]; first compound 0.253 µM): 0.593 | relative viability ([2]; first compound 0.8 µM): 0.583 | relative viability ([2]; first compound 2.53 µM): 0.525 | relative viability ([3]; first compound 0.08 µM): 0.579 | relative viability ([3]; first compound 0.253 µM): 0.472 | relative viability ([3]; first compound 0.8 µM): 0.529 | relative viability ([4]; first compound 0.08 µM): 0.378 | relative viability ([4]; first compound 0.253 µM): 0.333 | relative viability ([4]; first compound 0.8 µM): 0.279 | relative viability ([4]; first compound 2.53 µM): 0.411 | relative viability ([5]; first compound 0.08 µM): 0.498 | relative viability ([5]; first compound 0.253 µM): 0.471 | relative viability ([5]; first compound 0.8 µM): 0.509 | relative viability ([5]; first compound 2.53 µM): 0.504 | relative viability ([6]; first compound 0.8 µM): 0.911 | relative viability ([6]; first compound 2.53 µM): 0.7 | relative viability ([7]; first compound 0.08 µM): 0.427 | relative viability ([7]; first compound 0.253 µM): 0.384 | relative viability ([7]; first compound 0.8 µM): 0.422 | relative viability ([7]; first compound 2.53 µM): 0.4 | relative viability ([8]; first compound 0.08 µM): 0.367 | relative viability ([8]; first compound 0.253 µM): 0.324 | relative viability ([8]; first compound 0.8 µM): 0.415 | relative viability ([8]; first compound 2.53 µM): 0.357 | relative viability ([9]; first compound 0.08 µM): 0.477 | relative viability ([9]; first compound 0.253 µM): 0.448 | relative viability ([9]; first compound 0.8 µM): 0.473 | relative viability ([9]; first compound 2.53 µM): 0.406 | relative viability ([10]; first compound 0.08 µM): 0.177 | relative viability ([10]; first compound 0.253 µM): 0.187 | relative viability ([10]; first compound 0.8 µM): 0.176 | relative viability ([10]; first compound 2.53 µM): 0.158 | relative viability ([11]; first compound 0.08 µM): 0.976 | relative viability ([11]; first compound 0.253 µM): 0.636 | relative viability ([11]; first compound 0.8 µM): 0.897 | relative viability ([11]; first compound 2.53 µM): 0.876 | relative viability ([12]; first compound 0.08 µM): 0.605 | relative viability ([12]; first compound 0.253 µM): 0.461 | relative viability ([12]; first compound 0.8 µM): 0.517 | relative viability ([12]; first compound 2.53 µM): 0.603 | relative viability ([13]; first compound 0.08 µM): 0.878 | relative viability ([13]; first compound 0.253 µM): 0.718 | relative viability ([13]; first compound 0.8 µM): 0.67 | relative viability ([13]; first compound 2.53 µM): 0.511 | relative viability ([14]; first compound 0.08 µM): 0.46 | relative viability ([14]; first compound 0.253 µM): 0.351 | relative viability ([14]; first compound 0.8 µM): 0.33 | relative viability ([14]; first compound 2.53 µM): 0.33 | relative viability ([15]; first compound 0.08 µM): 0.685 | relative viability ([15]; first compound 0.253 µM): 0.58 | relative viability ([15]; first compound 0.8 µM): 0.597 | relative viability ([15]; first compound 2.53 µM): 0.675 | relative viability ([16]; first compound 0.08 µM): 0.748 | relative viability ([16]; first compound 0.253 µM): 0.627 | relative viability ([16]; first compound 0.8 µM): 0.577 | relative viability ([16]; first compound 2.53 µM): 0.636 | relative viability ([17]; first compound 0.08 µM): 0.441 | relative viability ([17]; first compound 0.253 µM): 0.374 | relative viability ([17]; first compound 0.8 µM): 0.343 | relative viability ([17]; first compound 2.53 µM): 0.246 | relative viability ([18]; first compound 0.08 µM): 0.667 | relative viability ([18]; first compound 0.253 µM): 0.533 | relative viability ([18]; first compound 0.8 µM): 0.568 | relative viability ([18]; first compound 2.53 µM): 0.381 | relative viability ([19]; first compound 0.08 µM): 0.724 | relative viability ([19]; first compound 0.253 µM): 0.483 | relative viability ([19]; first compound 0.8 µM): 0.601 | relative viability ([19]; first compound 2.53 µM): 0.498 | relative viability ([20]; first compound 0.08 µM): 0.681 | relative viability ([20]; first compound 0.253 µM): 0.636 | relative viability ([20]; first compound 0.8 µM): 0.418 | relative viability ([20]; first compound 2.53 µM): 0.523 | relative viability ([21]; first compound 0.08 µM): 0.471 | relative viability ([21]; first compound 0.253 µM): 0.378 | relative viability ([21]; first compound 0.8 µM): 0.381 | relative viability ([21]; first compound 2.53 µM): 0.51 | relative viability ([22]; first compound 0.08 µM): 0.916 | relative viability ([22]; first compound 0.253 µM): 1.05 | relative viability ([22]; first compound 0.8 µM): 0.881 | relative viability ([22]; first compound 2.53 µM): 0.74 | relative viability ([23]; first compound 0.08 µM): 0.56 | relative viability ([23]; first compound 0.253 µM): 0.487 | relative viability ([23]; first compound 0.8 µM): 0.416 | relative viability ([23]; first compound 2.53 µM): 0.314
